Experimental data: ChEMBL document CHEMBL1139385, “Structural analysis of ARC-type inhibitor (ARC-1034) binding to protein kinase A catalytic subunit and rational design of bisubstrate analogue inhibitors of basophilic protein kinases” (J Med Chem, 2009)

Tests used:
[1] = molecular target: T1, cAMP-dependent protein kinase catalytic subunit alpha (Homo sapiens, UniProt P17612); assay: Binding affinity to PKA catalytic subunit alpha by fluorescence polarization assay
[2] = molecular target: T1, cAMP-dependent protein kinase catalytic subunit alpha; assay: Inhibition of PKA catalytic subunit alpha using 100 uM ATP and 30 uM TAMRA-kemptide substrate by fluorometric TLC assay
[3] = molecular target: RAC-gamma serine/threonine-protein kinase (Homo sapiens, UniProt Q9Y243); assay: Inhibition of PKBgamma using 100 uM ATP and 30 uM TAMRA-kemptide substrate by fluorometric TLC assay
[4] = molecular target: Rho-associated protein kinase 2 (Bos taurus) (UniProt Q28021); assay: Binding affinity to ROCK2 by fluorescence polarization assay
Sequence of Rho-associated protein kinase 2 (Bos taurus) (Q28021 whole entry, looked up): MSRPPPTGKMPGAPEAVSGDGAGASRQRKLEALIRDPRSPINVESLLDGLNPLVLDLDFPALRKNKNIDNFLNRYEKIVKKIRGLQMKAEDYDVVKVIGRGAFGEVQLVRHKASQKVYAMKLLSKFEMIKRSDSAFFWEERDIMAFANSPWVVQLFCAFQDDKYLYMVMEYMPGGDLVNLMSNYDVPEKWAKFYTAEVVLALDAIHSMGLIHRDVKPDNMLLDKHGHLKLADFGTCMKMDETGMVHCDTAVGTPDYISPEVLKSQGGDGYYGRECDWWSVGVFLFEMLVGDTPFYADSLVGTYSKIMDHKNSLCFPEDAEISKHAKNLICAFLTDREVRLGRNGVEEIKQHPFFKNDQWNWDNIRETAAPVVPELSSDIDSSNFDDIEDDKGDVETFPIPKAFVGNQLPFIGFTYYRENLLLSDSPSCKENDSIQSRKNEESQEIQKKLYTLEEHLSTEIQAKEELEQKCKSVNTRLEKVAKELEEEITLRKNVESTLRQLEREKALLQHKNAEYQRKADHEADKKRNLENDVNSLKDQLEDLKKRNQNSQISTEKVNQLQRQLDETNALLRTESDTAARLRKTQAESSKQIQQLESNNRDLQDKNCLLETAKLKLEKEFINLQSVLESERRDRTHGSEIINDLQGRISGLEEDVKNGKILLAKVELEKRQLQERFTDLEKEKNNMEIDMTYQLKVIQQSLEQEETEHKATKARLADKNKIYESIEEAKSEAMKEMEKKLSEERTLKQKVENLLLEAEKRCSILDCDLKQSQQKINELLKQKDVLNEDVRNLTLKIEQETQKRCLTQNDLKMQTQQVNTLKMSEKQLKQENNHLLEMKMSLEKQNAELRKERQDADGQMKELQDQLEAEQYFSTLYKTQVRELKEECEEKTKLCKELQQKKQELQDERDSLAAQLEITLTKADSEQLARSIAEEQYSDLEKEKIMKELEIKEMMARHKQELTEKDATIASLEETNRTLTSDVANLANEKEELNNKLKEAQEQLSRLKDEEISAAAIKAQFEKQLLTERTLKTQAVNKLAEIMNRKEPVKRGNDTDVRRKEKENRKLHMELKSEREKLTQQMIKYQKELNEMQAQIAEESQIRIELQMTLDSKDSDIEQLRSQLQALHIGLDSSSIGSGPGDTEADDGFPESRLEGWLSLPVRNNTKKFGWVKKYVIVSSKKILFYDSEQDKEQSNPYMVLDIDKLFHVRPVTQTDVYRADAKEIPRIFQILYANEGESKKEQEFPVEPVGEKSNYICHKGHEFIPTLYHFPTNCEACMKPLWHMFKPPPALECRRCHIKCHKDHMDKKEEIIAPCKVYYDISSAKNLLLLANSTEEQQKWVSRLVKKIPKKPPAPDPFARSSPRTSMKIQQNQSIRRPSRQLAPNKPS

Sequence of RAC-gamma serine/threonine-protein kinase (Q9Y243 whole entry): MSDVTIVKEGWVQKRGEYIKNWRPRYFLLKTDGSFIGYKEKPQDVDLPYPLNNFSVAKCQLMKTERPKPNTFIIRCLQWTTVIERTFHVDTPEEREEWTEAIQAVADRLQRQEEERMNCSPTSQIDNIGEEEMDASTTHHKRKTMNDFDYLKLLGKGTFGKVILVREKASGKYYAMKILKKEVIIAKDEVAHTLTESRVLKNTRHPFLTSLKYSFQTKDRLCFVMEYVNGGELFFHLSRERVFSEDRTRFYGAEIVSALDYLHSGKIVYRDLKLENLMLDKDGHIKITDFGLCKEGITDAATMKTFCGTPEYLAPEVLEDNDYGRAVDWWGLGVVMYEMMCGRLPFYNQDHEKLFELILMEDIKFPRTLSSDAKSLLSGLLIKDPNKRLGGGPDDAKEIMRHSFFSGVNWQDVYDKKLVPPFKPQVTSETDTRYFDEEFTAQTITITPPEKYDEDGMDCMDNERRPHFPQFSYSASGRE

NC(=O)CCCNC(=O)OC[C@H]1O[C@@H](n2cnc3c(N)ncnc32)[C@H](O)[C@@H]1O
Kd [1]: 98700 nM

C[C@@H](NC(=O)CCCCCNC(=O)[C@H]1O[C@@H](n2cnc3c(N)ncnc32)[C@H](O)[C@@H]1O)C(=O)NCCCCCC(=O)N[C@H](CCCN=C(N)N)C(=O)N[C@H](CCCN=C(N)N)C(N)=O
Kd [1]: 5.8 nM
IC50 [2]: 97 nM
IC50 [3]: 3.75 µM
Kd [4]: 119 nM

NC(=O)[C@@H](CCCN=C(N)N)NC(=O)[C@@H](CCCN=C(N)N)NC(=O)CCCCCCCNC(=O)CCCCCNC(=O)[C@H]1O[C@@H](n2cnc3c(N)ncnc32)[C@H](O)[C@@H]1O
Kd [1]: 95.4 nM

N=C(N)NCCC[C@@H](NC(=O)[C@@H](CCCNC(=N)N)NC(=O)CCCCCCCNC(=O)[C@@H](CCCCN)NC(=O)CCCCCNC(=O)[C@H]1O[C@@H](n2cnc3c(N)ncnc32)[C@H](O)[C@@H]1O)C(N)=O
Kd [1]: 9.5 nM

NC(=O)[C@@H](CCCN=C(N)N)NC(=O)CCCCCNC(=O)[C@H]1O[C@@H](n2cnc3c(N)ncnc32)[C@H](O)[C@@H]1O
Kd [1]: 249 nM
IC50 [2]: 2100 nM
IC50 [3]: 1.61 µM
Kd [4]: 89.7 nM

NC(=O)[C@@H](CCCN=C(N)N)NC(=O)[C@@H](CCCN=C(N)N)NC(=O)CCCCCNC(=O)CCCCCNC(=O)[C@H]1O[C@@H](n2cnc3c(N)ncnc32)[C@H](O)[C@@H]1O
Kd [1]: 83 nM

NC(=O)[C@@H](Cc1ccc(C(=O)c2ccccc2)cc1)NC(=O)CCCCCNC(=O)[C@H]1O[C@@H](n2cnc3c(N)ncnc32)[C@H](O)[C@@H]1O
Kd [1]: 1960 nM

C[C@@H](NC(=O)CCCCCNC(=O)[C@@H]1C[C@@H](O)[C@H](n2cnc3c(N)ncnc32)C1)C(=O)NCCCCCC(=O)N[C@H](CCCNC(=N)N)C(=O)N[C@H](CCCNC(=N)N)C(N)=O
Kd [1]: 1.8 nM
IC50 [2]: 21.1 nM
IC50 [3]: 2.04 µM
Kd [4]: 187 nM

NCCNC(=O)CCCCCNC(=O)[C@H]1O[C@@H](n2cnc3c(N)ncnc32)[C@H](O)[C@@H]1O
Kd [1]: 8230 nM

NCCCNC(=O)CCCCCNC(=O)[C@H]1O[C@@H](n2cnc3c(N)ncnc32)[C@H](O)[C@@H]1O
Kd [1]: 6050 nM

Nc1ncnc2c1ncn2[C@@H]1O[C@H](C(=O)NCCCCCC(=O)O)[C@@H](O)[C@H]1O
Kd [1]: 55800 nM

NCCCC[C@@H](NC(=O)CCCCCNC(=O)[C@H]1O[C@@H](n2cnc3c(N)ncnc32)[C@H](O)[C@@H]1O)C(=O)NCCCCCC(=O)N[C@@H](CCCN=C(N)N)C(=O)N[C@@H](CCCN=C(N)N)C(N)=O
Kd [1]: 8.7 nM

NCCCC[C@@H](NC(=O)CCCCCNC(=O)[C@H]1O[C@@H](n2cnc3c(N)ncnc32)[C@H](O)[C@@H]1O)C(N)=O
Kd [1]: 443 nM

NCCCC[C@@H](NC(=O)CCCCCNC(=O)[C@H]1O[C@@H](n2cnc3c(N)ncnc32)[C@H](O)[C@@H]1O)C(=O)NCCCCCC(=O)N[C@H](CCCN=C(N)N)C(=O)N[C@H](CCCN=C(N)N)C(N)=O
Kd [1]: 7.6 nM
IC50 [2]: 54 nM
IC50 [3]: 0.774 µM
Kd [4]: 1.4 nM

NCCCCNC(=O)CCCCCNC(=O)[C@H]1O[C@@H](n2cnc3c(N)ncnc32)[C@H](O)[C@@H]1O
Kd [1]: 1640 nM

NC(=O)CCCCCNC(=O)OC[C@H]1O[C@@H](n2cnc3c(N)ncnc32)[C@H](O)[C@@H]1O
Kd [1]: 52100 nM

Nc1ncnc2c1ncn2[C@@H]1O[C@H](C(=O)NCCCCCC(=O)NCc2ccccc2)[C@@H](O)[C@H]1O
Kd [1]: 13500 nM

NCCCC[C@H](NC(=O)CCCCCNC(=O)[C@H]1O[C@@H](n2cnc3c(N)ncnc32)[C@H](O)[C@@H]1O)C(=O)NCCCCCC(=O)N[C@H](CCCN=C(N)N)C(=O)N[C@H](CCCN=C(N)N)C(N)=O
Kd [1]: 594 nM

NC(=O)[C@H](Cc1ccc(C(=O)c2ccccc2)cc1)NC(=O)CCCCCNC(=O)[C@H]1O[C@@H](n2cnc3c(N)ncnc32)[C@H](O)[C@@H]1O
Kd [1]: > 100000 nM

NC(=O)CCCCCNC(=O)[C@H]1O[C@@H](n2cnc3c(N)ncnc32)[C@H](O)[C@@H]1O
Kd [1]: 2180 nM
IC50 [2]: 26000 nM
IC50 [3]: > 1000 µM
Kd [4]: 4480 nM

NCCCC[C@@H](NC(=O)CCCCCNC(=O)[C@H]1O[C@@H](n2cnc3c(N)ncnc32)[C@H](O)[C@@H]1O)C(=O)NCCCC(=O)N[C@H](CCCN=C(N)N)C(=O)N[C@H](CCCN=C(N)N)C(N)=O
Kd [1]: 12.6 nM

Nc1ncnc2c1ncn2[C@@H]1O[C@H](C(=O)NCCCCCC(=O)NCCO)[C@@H](O)[C@H]1O
Kd [1]: 18700 nM

NCCCC[C@@H](NC(=O)CCCCCNC(=O)[C@H]1O[C@@H](n2cnc3c(N)ncnc32)[C@H](O)[C@@H]1O)C(=O)NCCCCCC(=O)N[C@H](CCCN=C(N)N)C(=O)N[C@H](CCCN=C(N)N)C(=O)N[C@H](CCCN=C(N)N)C(=O)N[C@H](CCCN=C(N)N)C(N)=O
Kd [1]: 0.5 nM
IC50 [2]: 13.4 nM
IC50 [3]: 0.0566 µM
Kd [4]: < 1 nM

N=C(N)NCCC[C@@H](NC(=O)[C@@H](CCCNC(=N)N)NC(=O)CCCNC(=O)CCCCCNC(=O)[C@H]1O[C@@H](n2cnc3c(N)ncnc32)[C@H](O)[C@@H]1O)C(N)=O
Kd [1]: 247 nM

NC(=O)[C@@H](CCCN=C(N)N)NC(=O)[C@@H](CCCN=C(N)N)NC(=O)CCCCCNC(=O)[C@H]1O[C@@H](n2cnc3c(N)ncnc32)[C@H](O)[C@@H]1O
IC50 [2]: 2600 nM
